Test results: patent US8192962B2, “Processes for detecting toxic substances” (Daikin Industries, Ltd., priority 2001, dated 2012)

Tested on: Metabolism protein genes
Test: DNA chip mRNA expression in yeast, metabolism protein genes (Table 7)
Assay type: cell-based, Saccharomyces cerevisiae S288C
Protocol: Yeast (Saccharomyces cerevisiae S288C (α SUC2mal mel gap2 CUP1)) were incubated at 25° C. on YPD medium (yeast extract 1%, polypepton 2%, glucose 2%). One of toxic chemical substances was added to the cells at logarithmic growth phase, and the cells were further incubated for two hours. Cells were cultured without any chemical substance in the same condition, and were used as control. Concentrations of the chemical substances were defined to inhibit the growth of the yeast but not lead to death.
After completion of the incubation, the culture was centrifuged to collect the cells. To the cells, sodium acetate buffer (50 mM sodium acetate, 10 mM EDTA, 1% SDS) was added, and the mixture was shaken at 65° C. for five minutes, followed by returning to room temperature, and obtaining the supernatant, of which the procedures were repeated two times. To the supernatant, ½ amount of a solution of phenol/chloroform was added, and the mixture was centrifuged to give a supernatant, which was added with an equal amount of chloroform, and the mixture was centrifuged to give a supernatant. To the supernatant, an equal amount of isopropanol containing 0.3 M sodium acetate was added, and the mixture was allowed to stand at room temperature for 30 minutes, after which the mixture was centrifuged to give a sediment of the whole RNAs. Seventy % ethanol was added to the sediment, and the mixture was again centrifuged to give a sediment, which was then dried and dissolved in water. mRNA was isolated from the whole RNAs as followings. In view of the fact that a poly A chain is attached to the 3′ terminus of mRNA, a polynucleotide having a poly T structure which was immobilized on the surface of latex beads was used to trap the mRNA, and then the mRNA was washed and eluted with spine column (Oligotex-dT30<Super>mRNA Purification Kit, Takara). Reverse transcription of the mRNA was conducted with a reverse transcriptase (Super Script II Reverse Transcriptase; catalogue No. 18064-014, GibcoBRL) using fluorescence-labeled nucleotides to give cDNAs that were introduced with Cy3-dUTP or Cy5-dUTP during the reverse transcription.
The labeled cDNAs were dissolved in TE buffer (10mM Tris-HCl/1 mM EDTA, pH8.0), and the solution was dropped on the DNA chip containing the whole genes of yeast (DNA Chip Research Inc. Japan) so that the cDNAs were hybridized on the DNA chip at 65° C. for over 12 hours. The fluoresces intensity of the DNA chip was read with a scanner, and the ratio relative to the fluorescence intensity resulting from the absence of chemical substance was estimated as the following, which is shown in Tables 1 to 9: […]

N#Cc1c(Cl)c(Cl)c(Cl)c(C#N)c1Cl [(9), 2,4,5,6-tetrachloro-1,3-benzenedicarbonitrile]
level of expressed mRNA in the presence/in the absence of chemical substance (yeast gene YMR261C): 1.6 | The level of expressed mRNA in the presence of chemical substance/The level of expressed mRNA in the absence of chemical substance (yeast gene YMR271C): 8.0 | The level of expressed mRNA in the presence of chemical substance/The level of expressed mRNA in the absence of chemical substance (yeast gene YMR296C): 0.4 | level of expressed mRNA in the presence/in the absence of chemical substance (yeast gene YMR323W): 0.5 | The level of expressed mRNA in the presence of chemical substance/The level of expressed mRNA in the absence of chemical substance (yeast gene YNL012W): 3.3 | level of expressed mRNA in the presence/in the absence of chemical substance (yeast gene YNL025C): 1.1 | The level of expressed mRNA in the presence of chemical substance/The level of expressed mRNA in the absence of chemical substance (yeast gene YNL037C): 0.6 | The level of expressed mRNA in the presence of chemical substance/The level of expressed mRNA in the absence of chemical substance (yeast gene YNL045W): 1.3 | The level of expressed mRNA in the presence of chemical substance/The level of expressed mRNA in the absence of chemical substance (yeast gene YNL104C): 1.1 | The level of expressed mRNA in the presence of chemical substance/The level of expressed mRNA in the absence of chemical substance (yeast gene YNL106C): 0.7 | The level of expressed mRNA in the presence of chemical substance/The level of expressed mRNA in the absence of chemical substance (yeast gene YNL169C): 1.1 | The level of expressed mRNA in the presence of chemical substance/The level of expressed mRNA in the absence of chemical substance (yeast gene YNL231C): 2.2 | The level of expressed mRNA in the presence of chemical substance/The level of expressed mRNA in the absence of chemical substance (yeast gene YNL264C): 3.3 | The level of expressed mRNA in the presence of chemical substance/The level of expressed mRNA in the absence of chemical substance (yeast gene YNL322C): 0.7 | The level of expressed mRNA in the presence of chemical substance/The level of expressed mRNA in the absence of chemical substance (yeast gene YNL331C): 42.6 | The level of expressed mRNA in the presence of chemical substance/The level of expressed mRNA in the absence of chemical substance (yeast gene YNL332W): 3.3 | The level of expressed mRNA in the presence of chemical substance/The level of expressed mRNA in the absence of chemical substance (yeast gene YNR002C): 3.9 | The level of expressed mRNA in the presence of chemical substance/The level of expressed mRNA in the absence of chemical substance (yeast gene YNR019W): 1.8 | The level of expressed mRNA in the presence of chemical substance/The level of expressed mRNA in the absence of chemical substance (yeast gene YNR033W): 3.6 | The level of expressed mRNA in the presence of chemical substance/The level of expressed mRNA in the absence of chemical substance (yeast gene YNR059W): 1.8 | The level of expressed mRNA in the presence of chemical substance/The level of expressed mRNA in the absence of chemical substance (yeast gene YNR071C): 3.1 | The level of expressed mRNA in the presence of chemical substance/The level of expressed mRNA in the absence of chemical substance (yeast gene YOL058W): 0.1 | level of expressed mRNA in the presence/in the absence of chemical substance (yeast gene YOL086C): 0.1 | The level of expressed mRNA in the presence of chemical substance/The level of expressed mRNA in the absence of chemical substance (yeast gene YOL126C): 0.8 | The level of expressed mRNA in the presence of chemical substance/The level of expressed mRNA in the absence of chemical substance (yeast gene YOL143C): 0.8 | The level of expressed mRNA in the presence of chemical substance/The level of expressed mRNA in the absence of chemical substance (yeast gene YOL153C): 2.5 | level of expressed mRNA in the presence/in the absence of chemical substance (yeast gene YOL156W): 2.3 | The level of expressed mRNA in the presence of chemical substance/The level of expressed mRNA in the absence of chemical substance (yeast gene YOL165C): 46.9 | level of expressed mRNA in the presence/in the absence of chemical substance (yeast gene YOR002W): 0.8 | level of expressed mRNA in the presence/in the absence of chemical substance (yeast gene YOR085W): 0.5 | The level of expressed mRNA in the presence of chemical substance/The level of expressed mRNA in the absence of chemical substance (yeast gene YOR099W): 0.6 | level of expressed mRNA in the presence/in the absence of chemical substance (yeast gene YOR108W): 0.4 | level of expressed mRNA in the presence/in the absence of chemical substance (yeast gene YOR128C): 0.3 | The level of expressed mRNA in the presence of chemical substance/The level of expressed mRNA in the absence of chemical substance (yeast gene YOR130C): 2.0 | The level of expressed mRNA in the presence of chemical substance/The level of expressed mRNA in the absence of chemical substance (yeast gene YOR136W): 0.3 | level of expressed mRNA in the presence/in the absence of chemical substance (yeast gene YOR142W): 1.1 | level of expressed mRNA in the presence/in the absence of chemical substance (yeast gene YOR176W): 1.0 | level of expressed mRNA in the presence/in the absence of chemical substance (yeast gene YOR178C): 0.2 | The level of expressed mRNA in the presence of chemical substance/The level of expressed mRNA in the absence of chemical substance (yeast gene YOR226C): 1.3 | The level of expressed mRNA in the presence of chemical substance/The level of expressed mRNA in the absence of chemical substance (yeast gene YOR336W): 1.7 | The level of expressed mRNA in the presence of chemical substance/The level of expressed mRNA in the absence of chemical substance (yeast gene YOR347C): 0.5 | The level of expressed mRNA in the presence of chemical substance/The level of expressed mRNA in the absence of chemical substance (yeast gene YOR377W): 3.8 | The level of expressed mRNA in the presence of chemical substance/The level of expressed mRNA in the absence of chemical substance (yeast gene YPL017C): 3.0 | level of expressed mRNA in the presence/in the absence of chemical substance (yeast gene YPL028W): 1.2 | level of expressed mRNA in the presence/in the absence of chemical substance (yeast gene YPL057C): 0.4 | level of expressed mRNA in the presence/in the absence of chemical substance (yeast gene YPL135W): 0.5 | The level of expressed mRNA in the presence of chemical substance/The level of expressed mRNA in the absence of chemical substance (yeast gene YPR026W): 0.9 | level of expressed mRNA in the presence/in the absence of chemical substance (yeast gene YPR113W): 0.4 | The level of expressed mRNA in the presence of chemical substance/The level of expressed mRNA in the absence of chemical substance (yeast gene YPR167C): 76.6 | level of expressed mRNA in the presence/in the absence of chemical substance (yeast gene YPR183W): 0.9
